From PMC4503722, “Novel Phenotypic Outcomes Identified for a Public Collection of Approved Drugs from a Publicly Accessible Panel of Assays” (PLoS ONE, 2015)
Like-named read-outs stand apart in the source and are kept apart here.

What was measured:
Assay in all cases: cells
[1] = system: HCT116; assay type: cell-based
[2] = system: SW480; assay type: cell-based
[3] = system: HCT116 cells treated with a GSK3β inhibitor; assay type: cell-based
[4] = system: endothelial tube formation in co-cultures of ECFCs and ADSCs treated with VEGF; assay type: cell-based, human
[5] = system: DLD-1; assay type: cell-based
[6] = system: INS-1E cells; assay type: cell-based, rat
[7] = system: nuclear β-catenin in C2C12 cells; assay type: cell-based
[8] = system: NCI-H716 cells; assay type: cell-based, Human
[9] = system: HeLa cells; assay type: cell-based; conditions: read-out: CellCycle G2/M
[10] = read-out: Basal_Viability ATP HCT116
[11] = read-out: Basal_Viability ATP SW480
[12] = read-out: GSK3b inh pretreated_Viability ATP HCT116
[13] = read-out: Basal_Viability ATP DLD-1
[14] = Homo sapiens, HCT-116, basal, read-out: Basal_Viability ATP HCT116
[15] = Homo sapiens, SW480, basal, read-out: Basal_Viability ATP SW480
[16] = Homo sapiens, HCT-116, GSK3b inhibitor pretreated, read-out: GSK3b inh pretreated_Viability ATP HCT116
[17] = Homo sapiens, DLD-1, basal, read-out: Basal_Viability ATP DLD-1
[18] = Rattus norvegicus; IC50 / EC50; INS-1E; read-out: Insulin Secretion
[19] = Mus musculus, C2C12, IC50 / EC50, C2C12 beta-catenin translocation, read-out: Wnt Pathway
[20] = Homo sapiens; IC50 / EC50; NCI-H716; read-out: GLP 1 Secretion
[21] = Homo sapiens, IC50 / EC50; endothelial tube area, ADSC/ECFC co-culture; read-out: Anti-Angiogenesis

`Nc1cc(C(F)(F)F)ccc1S` gave an IC50 ([1]; basal, HCT116, read-out: Basal_Viability ATP HCT116) of over 20 µM, an IC50 ([2]; basal, SW480, read-out: Basal_Viability ATP SW480) of over 20 µM and an IC50 ([3]; HCT116 pretreated with GSK3b inhibitor, read-out: GSK3b inh pretreated_Viability ATP HCT116) of over 20 µM. It also gave an IC50 ([4]; read-out: Anti-Angiogenesis) of over 10 µM, an IC50 ([5]; basal, DLD-1, read-out: Basal_Viability ATP DLD-1) of over 20 µM and an EC50 ([6]; S2 Table; module primary assay; 20 / 20.1 codes per legend; read-out: Insulin Secretion) of over 10 µM. It also gave an EC50 ([7]; S2 Table, module primary assay, 20 / 20.1 codes per legend, read-out: Wnt Pathway) of over 10 µM and an EC50 ([8]; read-out: GLP 1 Secretion) of 1.16 µM.

For `COc1ccc(OC(=O)N(CC(=O)O)Cc2ccc(OCCc3nc(-c4ccccc4)oc3C)cc2)cc1`, the IC50 [1, 10] was 7.65 µM, the IC50 [2, 11] was 6.23 µM and the IC50 [3, 12] was 6.13 µM. For the same molecule, the IC50 ([4]; read-out: Anti-Angiogenesis) was over 10 µM, the IC50 [5, 13] was 9.55 µM and the EC50 ([6]; read-out: Insulin Secretion) was over 10 µM. For the same molecule, the EC50 ([7]; read-out: Wnt Pathway) was over 10 µM and the EC50 ([8]; read-out: GLP 1 Secretion) was 1.54 µM.

Molecule `CCOc1ccc2nc3cc(N)ccc3c(N)c2c1` [Acrinol] has an IC50 [1, 10] of 15.7 µM, an IC50 [2, 11] of 3.23 µM and an IC50 [3, 12] of 5.92 µM. For the same molecule, the IC50 ([4]; read-out: Anti-Angiogenesis) was 4.94 µM, the IC50 [5, 13] was over 20 µM and the EC50 ([6]; read-out: Insulin Secretion) was over 10 µM. For the same molecule, the EC50 [9] was over 10 µM, the EC50 ([7]; read-out: Wnt Pathway) was over 10 µM and the EC50 ([8]; read-out: GLP 1 Secretion) was over 10 µM.

In the case of `Cc1c(C)n(CCN(C)C)c2ccc(C(=O)OCCN(C)C)cc12` [Amindocate], the IC50 [1, 14] is reported as over 20 µM, the IC50 [2, 15] is reported as 10.2 µM and the IC50 [3, 16] is reported as over 20 µM. The IC50 [5, 17] was over 20 µM, the EC50 [6, 18] was over 10 µM and the EC50 [7, 19] was over 10 µM. The EC50 [8, 20] was 1.2 µM.

Work on `O=C1c2c(O)cccc2Cc2cccc(O)c21` [Anthralin] yielded an IC50 ([1]; Homo sapiens, HCT-116, basal, HCT116, read-out: Basal_Viability ATP HCT116) of 2.2 µM, an IC50 ([2]; Homo sapiens, SW480, basal, SW480, read-out: Basal_Viability ATP SW480) of 1.57 µM and an IC50 ([3]; Homo sapiens, HCT-116, HCT116 pretreated with GSK3b inhibitor, read-out: GSK3b inh pretreated_Viability ATP HCT116) of 16.3 µM. For the same molecule, the IC50 ([4]; Homo sapiens; read-out: Anti-Angiogenesis) was 0.604 µM, the IC50 ([5]; Homo sapiens, DLD-1, basal, DLD-1, read-out: Basal_Viability ATP DLD-1) was 0.0667 µM and the EC50 ([6]; Rattus norvegicus, INS-1E; read-out: Insulin Secretion) was over 10 µM. For the same molecule, the EC50 ([9]; Homo sapiens, HeLa, S2 Table, HeLa, 20 = no response at highest concentration) was over 10 µM, the EC50 ([7]; Mus musculus, C2C12, S2 Table, module primary assay, 20 / 20.1 codes per legend, read-out: Wnt Pathway) was over 10 µM and the EC50 ([8]; Homo sapiens, NCI-H716; read-out: GLP 1 Secretion) was over 10 µM.

Work on `CC1=C(C(=O)OC(C)C)C(c2cccc([N+](=O)[O-])c2)C(C(=O)OC2CN(C(c3ccccc3)c3ccccc3)C2)=C(N)N1` (stereo not drawn) [Azelnidipine] yielded an IC50 [1, 14] of 3.69 µM, an IC50 [2, 15] of 3.84 µM and an IC50 [3, 16] of 5.5 µM. For the same molecule, the IC50 [4, 21] was 3.58 µM, the IC50 [5, 17] was 5.1 µM and the EC50 [6, 18] was over 10 µM. For the same molecule, the EC50 [7, 19] was over 10 µM and the EC50 [8, 20] was 1.23 µM.

`O=c1[nH]c(=O)n([C@H]2C[C@H](O)[C@@H](CO)O2)cc1Br` [Broxuridine] gave an IC50 [1, 14] of over 20 µM, an IC50 [2, 15] of over 20 µM and an IC50 [3, 16] of over 20 µM. The IC50 [4, 21] was 3.85 µM, the IC50 [5, 17] was over 20 µM and the EC50 [6, 18] was over 10 µM. It also gave an EC50 ([9]; Homo sapiens, HeLa, IC50 / EC50, HeLa) of over 10 µM, an EC50 [7, 19] of over 10 µM and an EC50 [8, 20] of over 10 µM.

In the case of `C=CC(=O)Nc1cc2c(Nc3ccc(F)c(Cl)c3)ncnc2cc1OCCCN1CCOCC1` [Canertinib], the IC50 ([1]; Homo sapiens, HCT-116, read-out: Basal_Viability ATP HCT116) is reported as 3.71 µM, the IC50 ([2]; Homo sapiens, SW480, read-out: Basal_Viability ATP SW480) is reported as 1.21 µM and the IC50 ([3]; Homo sapiens, HCT-116, read-out: GSK3b inh pretreated_Viability ATP HCT116) is reported as 3.51 µM. For the same molecule, the IC50 ([4]; Homo sapiens, read-out: Anti-Angiogenesis) was over 10 µM, the IC50 ([5]; Homo sapiens, DLD-1, read-out: Basal_Viability ATP DLD-1) was 0.841 µM and the EC50 ([6]; Rattus norvegicus, INS-1E, read-out: Insulin Secretion) was over 10 µM. It also gave an EC50 ([9]; Homo sapiens, HeLa) of over 10 µM, an EC50 ([7]; Mus musculus, C2C12, read-out: Wnt Pathway) of 1 µM and an EC50 ([8]; Homo sapiens, NCI-H716, read-out: GLP 1 Secretion) of over 10 µM.

`NC(=O)C1(N2CCCCC2)CCN(CCCN2c3ccccc3CCc3ccc(Cl)cc32)CC1` [Clocapramine] showed an IC50 [1, 14] of 3.41 µM, an IC50 [2, 15] of 3.69 µM and an IC50 [3, 16] of 3.64 µM. For the same molecule, the IC50 [4, 21] was 3.4 µM, the IC50 [5, 17] was 5.35 µM and the EC50 [6, 18] was 10.1 µM. It also gave an EC50 [7, 19] of over 20 µM and an EC50 [8, 20] of 18.3 µM.
